Test [1] has as its system rats subjected to hemorrhagic shock. Kind of test: Hemorrhagic shock and resuscitation. It counts as in vivo, rat. The note with it: 6 mg/kg i.v., 5 minutes prior to resuscitation. As for the experimental part:
Rats were subjected to 2 hours of hemorrhage, followed by resuscitation as previously described in O. V. Evgenov et al., Crit Care Med., October 2003;31(10):2429-36. Compound 3 was administered at a dose of 6 mg/kg i.v., 5 minutes prior to resuscitation. […] To obtain the results shown in FIG. 7, rats were bled to reach mean BP of 40 mm Hg. This mean BP was maintained for 2 hours, followed by resuscitation with saline at a volume of 2× the shed blood volume. Rats were then observed for 3 hours, and the survival time was recorded. Compound 3 (6 mg/kg) was administered intravenously before the start of resuscitation. To obtain the results shown in FIG. 8, left intraventricular systolic pressure (LVSP), dP/dt, -dP/dt were monitored continuously for 20 minutes from 40 minutes after resuscitation. Compound 3 (6 mg/kg) was administered intravenously before the start of resuscitation. To obtain the results shown in FIG. 9, blood was taken 1 hour after resuscitation. Compound 3 (6 mg/kg) was administered intravenously before the start of resuscitation. To obtain the results shown in FIG. 10, blood was taken at 1 hour after resuscitation. Compound 3 (6 mg/kg) was administered intravenously before the start of resuscitation.

Test [2] relates to rats subjected to heterotopic heart transplantation. Put plainly: Heterotopic heart transplantation. Particulars: 10 mg/kg/day orally. It counts as in vivo, rat. As for the experimental part: Rats were subjected to heterotopic heart transplantation as described previously in H. Jiang et al., Transplantation, Jun. 15, 2002;73(11):1808-17. Compound 3 was administered at a dose of 10 mg/kg/day orally.

Test [3] relates to mice subjected to heart failure. Kind of test: Heart failure induced by aortic banding. It counts as in vivo. The note with it: 3 mg/kg/day orally. As for the experimental part:
Mice were subjected to heart failure induced by aortic banding as previously described in C. Y. Xiao et al., J Pharmacol Exp Ther., March 2005;312(3):891-8. Compound 3 was administered at a dose of 3 mg/kg/day orally.

The test system of test [4] is mice subjected to streptozocin diabetes. Put plainly: Multiple low dose streptozocin diabetes. Particulars: 3 or 10 mg/kg/day ip. It counts as in vivo. An excerpt:
Mice were subjected to multiple low dose streptozocin diabetes as previously described in J. G. Mabley et al., Br J Pharmacol., July 2001;133(6):909-19.

In test [5] the test system is rats subjected to balloon-induced vascular injury. Put plainly: Balloon-induced vascular injury of the carotid artery. It counts as in vivo, rat. The note with it: 1 mg/kg bid. An excerpt:
Rats were subjected to balloon-induced vascular injury of the carotid artery as previously described in C. Zhang et al., Am J Physiol Heart Circ Physiol., August 2004;287(2):H659-66.

The subject of test [6] is A549 human epithelial cells. Kind of test: Oxidant or free-radical damage, cell viability (mitochondrial respiration). It counts as cell-based. Particulars: A549 cells treated with oxidants and free radicals. As for the experimental part: (§1) The four right-hand most bar graphs represent cytotoxin plus […] of Compound 3.
(§2) A549 human epithelial cells and RAW murine macrophages were grown and cultured, then treated with oxidants and free radicals in the presence or absence of varying concentrations of Compound 3 according to the method of C. Szabo et al., Mol Med., October 2002;8(10):571-80. […] Protection is by 3-100 μM of Compound 3.

In the next test the test system is RAW murine macrophages. Described as above. It counts as cell-based. Particulars: RAW cells treated with oxidants and free radicals. As for the experimental part:
as §1, §2

Test [7] deals with rats subjected to myocardial infarction. Put plainly: Myocardial infarction by occlusion and reperfusion of the left anterior descending coronary artery. It counts as in vivo, rat. Particulars: 5 minutes prior to reperfusion. As for the experimental part:
Rats were subjected to myocardial infarction by occlusion and reperfusion of the left anterior descending coronary artery as previously described in C. Y. Xiao et al., J Pharmacol Exp Ther., August 2004;310(2):498-504. Compound 3 was administered at doses of 1, 3, or 6 mg/kg i.v., 5 minutes prior to reperfusion.

For `O=C([O-])c1ccc(C[n+]2ccccc2/C2=C3\C=CC(=N3)/C(c3cccc[n+]3Cc3ccc(C(=O)[O-])cc3)=c3/cc/c4[n]3[Fe]([Cl])[n]3c2ccc3/C(c2cccc[n+]2Cc2ccc(C(=O)[O-])cc2)=C2/C=CC(=N2)\C=4c2cccc[n+]2Cc2ccc(C(=O)[O-])cc2)cc1` [Compound 3], in test [1], the blood pressure entry is “effective for stabilizing blood pressure”, the “plasma levels of ALT” value is recorded as “reduced”, the “plasma levels of creatine kinase” value was “reduced plasma levels of creatine kinase” and the survival rate result was “increasing survival rate”. Moreover, the “degree of myocardial hypertrophy” value in test [2] is reported as “reduced the degree of myocardial hypertrophy”. Also, the “degree of myocardial hypertrophy” value in test [3] is on record as “reduced the degree of myocardial hypertrophy”. In test [4], the development of hyperglycemia entry is “prevented the development of hyperglycemia” and the pancreatic insulin content entry is reported as “normalized pancreatic insulin content”. Moreover, in test [5], the “degree of intimal hypertrophy” value is “reduced the degree of intimal hypertrophy” and the “development of endothelial dysfunction” value is “prevented the development of endothelial dysfunction”. The “loss of endothelium-dependent relaxations on the injured side” value in test [5] (FIG. 13) is listed as “completely prevented this loss of the endothelial function”. Also, in test [6], the concentration giving protection was in the range of 3 to 100 µM and the “protection against the suppression of cell viability” value was “dose-dependently protected”. For the same compound, in the test with RAW murine macrophages, the concentration giving protection is 3 to 100 µM and the “protection against the suppression of cell viability” value is recorded as “dose-dependently protected”. Also, in test [7] (6 mg/kg i.v.), the “plasma levels of creatine kinase” value is listed as “reduced plasma levels of creatine kinase” and the protective effect result was “significant protective effect”. Besides, the infarct size result in test [7] (1, 3, or 6 mg/kg i.v.) is listed as “effective for reducing infarct size”.
